Values of other authors as cited in patent US20070117750A1, “METHOD FOR ENHANCED OCULAR DRUG PENETRATION” (priority 2005, published 2007).

Experiments:
[1] = topical ocular dose of 225 μg
[2] = topical instillation

Structure (SMILES) | systemic bioavailability [1] | peak concentration time, aqueous humor [2] | peak concentration time, iris ciliary/body ([2]; or first time interval that can be measured)
CC(C(=O)O)c1ccc(-c2ccccc2)c(F)c1 (stereo not drawn) [flurbiprofen] | 74% |  | 
Clc1cccc(Cl)c1N=C1NCCN1 [clonidine] |  | 15 min | 2 min
